The target of one test is T1, rTh polymerase (Thermus thermophilus, UniProt P52028).
T1 construct: purchased
As to the kind of experiment: PCR polymerase assay of modified nucleotide as substrate in place of dTTP. Format: biochemical. The following applies: typical PCR conditions, Taq, Vent, Pfu and rTh polymerases tested. An excerpt: The modified nucleotides described above were tasted in polymerase assays to determine their compatibility as substrates for polymerase reactions. The modified nucleotide Compound 7 (modified dUTP), served as a substrate in place of deoxythymidinetriphosphate, dTTP, for thermostable DNA polymerases using typical PCR conditions. Commercially available thermostable DNA polymerases from […] were used in the assays: Taq from Thermus aquaticus, Vent from Thermococcus litoralis, Pfu from Pyrococcus furiosus, and rTh from Thennus thennophilus.

In a further test the target is DNA polymerase I (Escherichia coli, UniProt P00582). The following applies: 90 minute time point; 5.4 Kb plasmid, 15° C., 3H-dGTP counting.
Sequence of DNA polymerase I (P00582 whole entry): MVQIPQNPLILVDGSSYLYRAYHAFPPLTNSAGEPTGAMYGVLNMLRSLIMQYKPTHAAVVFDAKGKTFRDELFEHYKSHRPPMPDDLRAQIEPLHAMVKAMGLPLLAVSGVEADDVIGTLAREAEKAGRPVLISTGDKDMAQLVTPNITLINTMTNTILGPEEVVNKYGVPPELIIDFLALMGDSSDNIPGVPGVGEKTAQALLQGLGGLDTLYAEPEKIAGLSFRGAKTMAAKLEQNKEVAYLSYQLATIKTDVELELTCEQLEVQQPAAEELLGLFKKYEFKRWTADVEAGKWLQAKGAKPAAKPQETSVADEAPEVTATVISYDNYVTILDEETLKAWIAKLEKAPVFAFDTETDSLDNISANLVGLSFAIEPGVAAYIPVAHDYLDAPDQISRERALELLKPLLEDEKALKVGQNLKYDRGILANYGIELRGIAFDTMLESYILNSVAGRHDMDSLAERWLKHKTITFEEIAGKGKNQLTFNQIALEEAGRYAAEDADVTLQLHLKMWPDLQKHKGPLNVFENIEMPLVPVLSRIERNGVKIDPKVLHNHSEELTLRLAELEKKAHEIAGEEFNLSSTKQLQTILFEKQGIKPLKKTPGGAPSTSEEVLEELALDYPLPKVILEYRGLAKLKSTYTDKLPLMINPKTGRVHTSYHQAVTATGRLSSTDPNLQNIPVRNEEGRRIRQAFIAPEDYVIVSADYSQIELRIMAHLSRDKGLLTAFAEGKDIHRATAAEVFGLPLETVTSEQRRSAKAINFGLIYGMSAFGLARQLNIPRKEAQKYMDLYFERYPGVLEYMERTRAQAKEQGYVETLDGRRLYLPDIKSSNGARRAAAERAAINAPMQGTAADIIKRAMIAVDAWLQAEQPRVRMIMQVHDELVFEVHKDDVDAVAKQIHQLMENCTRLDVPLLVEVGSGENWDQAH

Consider four compounds from patent US8680062B2, “System for delivering therapeutic agents into living cells and cells nuclei” (Deliversir Ltd., priority 2004, dated 2014).

T1 sequence (P52028 whole entry): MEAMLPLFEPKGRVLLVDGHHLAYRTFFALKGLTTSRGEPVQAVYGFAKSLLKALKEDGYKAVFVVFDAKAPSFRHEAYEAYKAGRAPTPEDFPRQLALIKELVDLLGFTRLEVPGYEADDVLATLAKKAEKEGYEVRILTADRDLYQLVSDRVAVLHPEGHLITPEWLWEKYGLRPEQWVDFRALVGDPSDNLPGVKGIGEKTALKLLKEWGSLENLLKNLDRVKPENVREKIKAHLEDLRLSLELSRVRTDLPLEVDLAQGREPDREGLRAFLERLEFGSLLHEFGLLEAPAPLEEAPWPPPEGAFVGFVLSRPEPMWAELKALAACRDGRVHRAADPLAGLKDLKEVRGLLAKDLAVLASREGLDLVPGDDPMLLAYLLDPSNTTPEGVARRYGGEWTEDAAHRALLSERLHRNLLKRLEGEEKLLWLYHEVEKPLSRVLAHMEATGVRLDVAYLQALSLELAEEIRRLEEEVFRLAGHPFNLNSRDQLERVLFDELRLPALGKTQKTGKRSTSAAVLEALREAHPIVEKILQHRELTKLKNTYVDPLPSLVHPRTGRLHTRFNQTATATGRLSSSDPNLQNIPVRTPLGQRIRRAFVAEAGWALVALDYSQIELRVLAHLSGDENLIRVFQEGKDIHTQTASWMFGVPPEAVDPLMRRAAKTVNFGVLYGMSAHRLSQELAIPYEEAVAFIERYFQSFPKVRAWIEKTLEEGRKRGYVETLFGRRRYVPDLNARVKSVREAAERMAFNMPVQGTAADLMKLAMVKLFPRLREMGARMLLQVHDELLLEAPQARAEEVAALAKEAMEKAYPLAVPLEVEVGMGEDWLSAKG
Description for DNA polymerase I: At each time point of interest, 2 μl from the reaction mixture were withdrawn, spotted on glass fiber filters (GF/C), washed once with 10% trichloroacetic acid (TCA) and twice with 5% TCA, and with alcohol and was thereafter dried. The filters were loaded to a liquid scintillation counter for measurements of the progression of the polymerase reaction and the relative level of incorporation.

On to `NC/C=C/c1cn(C2CC(O)C(COP(=O)(O)OP(=O)(O)OP(=O)(O)O)O2)c(=O)[nH]c1=O` (stereo not shown) [Compound 7, 5′-triphosphate-5-(3-aminopropen-1-yl)deoxyuridine], for which, on rTh polymerase, the “incorporation into PCR product as polymerase substrate” value was “incorporation into a 561 base pair product only with rTh polymerase”.
As to `NCCCCCCNc1ncnc2c1ncn2[C@H]1C[C@H](O)[C@@H](COP(=O)(O)OP(=O)(O)OP(=O)(O)O)O1` [N^6-aminohexyl dATP, reference compound], the “relative levels of incorporation of the modified deoxynucleotides” value on DNA polymerase I was determined as 70%.
The same measure, in the same setting: next, “urocanic acid modified dCTP [Compound 11]”: 44%; “urocanic acid modified dUTP [Compound 8]”: 54%.
